As usually defined, the IC50 is the concentration that gives 50% inhibition.

The source of these data is patent US11987583B2, “Fused triazolo-pyrimidine compounds having useful pharmaceutical application” (PIKSci Inc., priority 2017, dated 2024).

Like-named read-outs stand apart in the source and are kept apart here.

In one experiment the test system is T-cell lymphoma Hut-78. The experiment is described as follows: Cell viability (Presto Blue), T-cell lymphoma Hut-78. It is filed as cell-based. The settings on record: Homo sapiens, HuT78, Hut-78 cells, 70 hours exposure. The method, then:
(§1) Three cancer cell lines, multiple myeloma KMS12E, Non-hodgkin's lymphoma SU-DHL4, T-cell lymphoma Hut-78, and normal human peripheral blood mononuclear cells derived from healthy individual were tested. The cells were plated in 384 well plates in RPMI medium supplemented with 10% fetal bovine serum. Cancer cells were plated at 1000 cells/well and normal cells at 10,000 cells per well in a total volume of 30 uL/well. Immediately after plating, the test compounds were added at […] concentrations: 10 uM-1 uM-0.01 uM-0.001 uM, in duplicate wells for each concentration. The cells were exposed to compounds for 70 hours at 37° C. in humidified incubator with 5% CO2. Cell viability was determined by Presto Blue reagent (Thermo Scientific/Invitrogen).

The test system of another experiment is multiple myeloma KMS12E. The experiment is described as follows: Cell viability (Presto Blue), multiple myeloma KMS12E. It is filed as cell-based. The settings on record: Homo sapiens, KMS12E cells, 70 hours exposure, read-out: Plasma cell myeloma, IC50. The method, then: as §1
The subject of experiment [1] is normal human peripheral blood mononuclear cells. The experiment is described as follows: Cell viability (Presto Blue), normal human PBMCs. Type of experiment: cell-based. The note with it: for IC50: Homo sapiens, PBMC. The method, then:
as §1

For experiment [2], the system named is multiple myeloma KMS12E, Non-hodgkin's lymphoma SU-DHL4, T-cell lymphoma Hut-78. In words: Cell viability (Presto Blue), panel of cancer cell lines. The settings on record: Homo sapiens; range over KMS12E, SU-DHL4, Hut-78; 70 hours; read-out: IC50, viability of the three cancer cell lines. It is filed as cell-based.
Method: Three cancer cell lines, multiple myeloma KMS12E, Non-hodgkin's lymphoma SU-DHL4, T-cell lymphoma Hut-78, and normal human peripheral blood mononuclear cells derived from healthy individual were tested. The cells were plated in 384 well plates in RPMI medium supplemented with 10% fetal bovine serum. Cancer cells were plated at 1000 cells/well and normal cells at 10,000 cells per well in a total volume of 30 uL/well. Immediately after plating, the test compounds were added at five concentrations: 10 uM-1 uM-0.01 uM-0.001 uM, in duplicate wells for each concentration. The cells were exposed to compounds for 70 hours at 37° C. in humidified incubator with 5% CO2. Cell viability was determined by Presto Blue reagent (Thermo Scientific/Invitrogen).
For experiment [3], the system named is IL-23 secretion by LPS-induced PBMCs. In words: IL-23 secretion by LPS-stimulated human PBMCs (ELISA). It is filed as cell-based. The note with it: 2 h pre-incubation, 100 ng/mL LPS 18 hours. The procedure: Human PBMCs were plated in 96 well plate at a density of 150,000 cells per a well in RPMI medium supplemented with 10% FBS. The cells were pre-incubated with compounds for 2 h. Following pre-incubation, the cells were stimulated with 100 ng/mL LPS for 18 hours. The secreted IL-23 was determined by ELISA (Human IL-23 Quantikine ELISA Kit, R&D cat #D2300B).
A general note: In an ELISA, binding on a coated surface is turned into a signal by an enzyme label.

Experiment [4] concerns Acute myelomonocytic leukemia cells ML-2. The experiment is described as follows: Caspase3/7 activity (Caspase-Glo 3/7) in ML-2 cells. It is filed as cell-based. The note with it: 15 h, 24 h and 41 h after exposure. The procedure: Acute myelomonocytic leukemia cells ML-2 were plated in 96 well plate at a density of 50,000 cells per a well in RPMI medium supplemented with 10% FBS. The cells were exposed to compounds and the early apoptosis marker, Caspase3/7 activity, was measured in the cells at 15 h, 24 h and 41 h after exposure to compounds. The caspase activity was determined using Caspase-Glo® 3/7 Assay (Promega) and according to the protocol provided by the manufacturer.

Experiment [5] concerns the target T1, Full length human recombinant PIKFYVE (Homo sapiens, UniProt Q9Y2I7).
T1 construct: Full length human recombinant PIKFYVE expressed in baculovirus expression system as N-terminal GST-fusion protein; GST (N); purchased Carna Biosciences (Kobe, Japan); host or cells: baculovirus expression system
In words: Biochemical PIKfyve assay. The note with it: 2 nM enzyme, 10 μM ATP, 3 h room temperature. The procedure:
Full length human recombinant PIKFYVE expressed in baculovirus expression system as N-terminal GST-fusion protein (265 kDa) was obtained from Carna Biosciences (Kobe, Japan). […] The kinase reactions were allowed to proceed for 3 h at room temperature. […] Terminated plates were analyzed on a microfluidic electrophoresis instrument (Caliper LabChip® 3000, Caliper Life Sciences/Perkin Elmer).

[6] abbreviates: viability, Presto Blue, 70 hours exposure, read-out: Normal human PBMCs, IC50.

T1 sequence (Q9Y2I7 whole entry, the tested form may be a part): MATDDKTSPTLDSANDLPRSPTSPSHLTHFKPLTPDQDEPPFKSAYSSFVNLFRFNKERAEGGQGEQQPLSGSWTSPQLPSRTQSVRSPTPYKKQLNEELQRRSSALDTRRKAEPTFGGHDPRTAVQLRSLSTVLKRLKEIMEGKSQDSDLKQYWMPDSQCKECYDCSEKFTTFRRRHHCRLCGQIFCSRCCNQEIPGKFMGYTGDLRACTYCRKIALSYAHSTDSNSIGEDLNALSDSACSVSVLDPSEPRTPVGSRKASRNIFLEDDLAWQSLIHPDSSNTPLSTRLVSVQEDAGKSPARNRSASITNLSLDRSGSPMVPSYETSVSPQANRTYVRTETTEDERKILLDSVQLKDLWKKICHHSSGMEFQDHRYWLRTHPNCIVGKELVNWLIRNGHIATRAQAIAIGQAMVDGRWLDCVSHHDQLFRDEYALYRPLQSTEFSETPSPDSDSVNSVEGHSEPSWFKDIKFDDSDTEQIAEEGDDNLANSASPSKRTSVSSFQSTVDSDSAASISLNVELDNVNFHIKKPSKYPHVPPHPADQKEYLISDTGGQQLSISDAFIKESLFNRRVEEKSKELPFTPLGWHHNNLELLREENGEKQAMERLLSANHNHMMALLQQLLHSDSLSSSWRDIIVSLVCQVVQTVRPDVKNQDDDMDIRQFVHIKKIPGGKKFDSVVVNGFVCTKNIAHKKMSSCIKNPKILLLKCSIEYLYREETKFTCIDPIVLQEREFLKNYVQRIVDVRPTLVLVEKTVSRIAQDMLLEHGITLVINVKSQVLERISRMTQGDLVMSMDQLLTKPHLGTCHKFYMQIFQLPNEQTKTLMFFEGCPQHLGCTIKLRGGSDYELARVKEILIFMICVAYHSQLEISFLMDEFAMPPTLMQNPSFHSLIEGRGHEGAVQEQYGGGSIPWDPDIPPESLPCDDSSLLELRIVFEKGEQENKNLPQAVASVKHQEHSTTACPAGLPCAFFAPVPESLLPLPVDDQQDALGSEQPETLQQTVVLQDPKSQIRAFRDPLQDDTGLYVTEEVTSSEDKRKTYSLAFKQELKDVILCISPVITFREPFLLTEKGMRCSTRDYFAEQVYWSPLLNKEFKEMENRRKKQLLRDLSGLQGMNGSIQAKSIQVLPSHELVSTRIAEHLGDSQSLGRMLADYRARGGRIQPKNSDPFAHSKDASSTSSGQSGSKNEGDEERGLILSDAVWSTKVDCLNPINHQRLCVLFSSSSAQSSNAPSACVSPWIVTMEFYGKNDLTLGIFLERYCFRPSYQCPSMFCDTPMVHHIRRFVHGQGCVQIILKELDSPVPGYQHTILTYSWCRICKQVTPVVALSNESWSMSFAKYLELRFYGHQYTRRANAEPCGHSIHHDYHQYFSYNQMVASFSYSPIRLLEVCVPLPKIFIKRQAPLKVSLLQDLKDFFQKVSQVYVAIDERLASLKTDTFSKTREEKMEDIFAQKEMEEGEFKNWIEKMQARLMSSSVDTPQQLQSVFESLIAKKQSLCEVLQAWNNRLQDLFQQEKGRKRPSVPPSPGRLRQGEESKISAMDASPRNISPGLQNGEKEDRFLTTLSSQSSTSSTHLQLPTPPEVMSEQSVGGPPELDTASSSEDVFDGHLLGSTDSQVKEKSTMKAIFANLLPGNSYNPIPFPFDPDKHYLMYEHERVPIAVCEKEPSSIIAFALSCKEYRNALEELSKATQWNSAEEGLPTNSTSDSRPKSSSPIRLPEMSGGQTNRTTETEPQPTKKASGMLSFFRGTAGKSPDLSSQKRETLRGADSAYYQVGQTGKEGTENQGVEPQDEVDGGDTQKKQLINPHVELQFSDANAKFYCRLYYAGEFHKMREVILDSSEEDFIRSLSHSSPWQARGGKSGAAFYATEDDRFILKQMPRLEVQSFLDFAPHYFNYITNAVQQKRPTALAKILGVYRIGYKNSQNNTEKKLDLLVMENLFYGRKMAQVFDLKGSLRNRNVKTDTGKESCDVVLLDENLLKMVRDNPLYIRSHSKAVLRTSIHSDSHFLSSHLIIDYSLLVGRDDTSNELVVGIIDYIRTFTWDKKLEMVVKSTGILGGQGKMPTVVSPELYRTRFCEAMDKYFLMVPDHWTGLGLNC

Consider `Cc1cccc(/C=N/Nc2cc(N3CCOCC3)n3nc(-c4ccncc4)cc3n2)c1` [APY0201], for which the IC50 in the experiment on T-cell lymphoma Hut-78 was 28 nM; with multiple myeloma KMS12E, 74 nM; in experiment [1] (70 hours, Example 14 text, read-out: IC50, viability of normal PBMCs) it was above 10 µM; in experiment [1] (setting [6]), above 10 µM; in experiment [2], 33 to 46 nM. The “secretion of IL-23” value in experiment [3] is reported as “completely blocked secretion of IL-23”. For the same compound, the “Caspase3/7 activation (early apoptosis marker)” value (“Caspase3/7 activation” below) in experiment [4] was “induce apoptosis”.

With `Cc1cccc(/C=N/Nc2cc(N3CCOCC3)nc(OCCc3ccccn3)n2)c1` [Apilimod, apilimod], the concentration for half-maximal inhibition (IC50) with T-cell lymphoma Hut-78 is 27 nM; in the experiment on multiple myeloma KMS12E it was 73 nM; in experiment [1] (setting [6]), above 10 µM. For the same compound, the “Caspase3/7 activation” value in experiment [4] is “induce apoptosis”.

Consider `Cc1cccc(/C=N/Nc2cc(N3CCOCC3)n3nc(-c4ccncc4)nc3n2)c1` [Compound 1, (E)-4-(5-(2-(3-methylbenzylidene)hydrazinyl)-2-(pyridin-4-yl)-[1,2,4]-triazolo[1,5-a]pyrimidin-7-yl)morpholine], for which the 50% inhibitory concentration (IC50) was 47 nM in the experiment on T-cell lymphoma Hut-78, 115 nM in the experiment on multiple myeloma KMS12E, above 10 µM in experiment [1] (setting [6]) and 10 nM in experiment [5]. The “selectivity towards cancer cells over normal cells” value in experiment [1] (Hut-78 and KMS12E vs normal human PBMCs) is reported as “showed selectivity towards cancer cells over normal cells”. In addition, the “secretion of IL-23” value in experiment [3] was “completely blocked secretion of IL-23”. Further, in experiment [4], the “Caspase3/7 activation” value is “triggered Caspase3/7 activation”.
